Laboratory results taken from US4578400A, “Therapeutic composition and method for treatment of cardiovascular diseases” (priority 1982, dated 1986).

Legend:
[1] = system: chloroform-induced arrhythmia (ventricular fibrillation); conditions: stated without own data; cited from earlier work
[2] = system: ventricular fibrillation after coronary artery ligation; test: Antiarrhythmic effects on myocardial infarction (coronary ligation); type: in vivo, dogs; conditions: before ligation = 100, control 41
Text: Antiarrhythmic effects on myocardial infarction
The method described by Shinohara (Jap. Circul. J., 32, 1269-1281, 1968) was used. Dogs were divided into groups of 5 animals, anesthetized with intravenous pentobarbital and were thoracotomized under artificial respiration, and a platinum bipolar electrode was inserted on the wall of the right atrium. Then the sinus node was crushed and the animals were subjected to pacing (2.5 Hz, 3 msec, 3.5-8 V) with an electronic stimulator. The left anterior descending coronary artery was doubly ligated at a site 2 cm away from its origin (A. S. Harris, Circulation, 1, 1318, 1950). Then 5--HDA--Na and lidocaine were injected into the femoral vein of the respective dogs. Using an electrode inserted in an ischemic zone in the left ventricle, the animals were given 15 to 20 successive electrical shocks before the ligation and 30 minutes after the ligation and administration. The threshold level necessary for inducing ventricular fibrillation was determined for each group of animals and shown in Table 4, with the values before the ligation taken as 100.

[3] = system: chloroform-induced arrhythmia (ventricular fibrillation); test: Effect on chloroform-induced arrhythmia; type: in vivo, male ddy mice; conditions: 10 mg/kg, intraperitoneally 5 minutes before chloroform; control 100
Text: When they stopped breathing, they were thoracotomized to examine the occurrence of ventricular fribrillation. The results are noted in Table 2 as percent occurrence of ventricular fibrillation.

[4] = system: ouabain induced arrhythmia; test: Effect on ouabain induced arrhythmia; type: in vivo, male hartley guinea pigs; conditions: i.v., 10 mg/kg, control = 100
Text: Effect on ouabain induced arrhythmia
The procedure described in Matsubara et al. (Folia Pharmacologica Japonica, 72, 557-571, 1976) was followed.
Male hartley guinea pigs were divided into groups of 8 animals and anesthetized with intraperitoneal urethane. Three groups were orally administered 5--HDA--Na, 5--HDAE and 5--HDA--DHP dissolved in distilled water. Another group was intravenously injected with 5--HDA--Na dissolved in physiological saline. One group was orally administered δ-DL emulsified in 5% aqueous arabic gum solution. One group was injected intravenously with lidocaine dissolved in physiological saline. For the respective routes of administration, control groups were administered the solvents used in administration of the test compounds. Thirty minutes after the oral administration and one minute after the intravenous injection, ouabain was infused into the jugular vein at a rate of 5 μg/kg/min until extrasystole, ventricular fibrillation and cardiac arrest appeared on a standard limb lead II of ECG. The results are shown in Table 3, with the time necessary for the respective symptoms to occur in the control groups taken as 100.

CCN(CC)CC(=O)Nc1c(C)cccc1C [Lidocaine, reference compound]
effectiveness by oral administration (in words) [1]: not effective by oral administration
Threshold level for inducing ventricular fibrillation, 30 min after ligation ([2]; 0.3 mg/kg i.v.): 68
Threshold level for inducing ventricular fibrillation, 30 min after ligation ([2]; 1.0 mg/kg i.v., *P < 0.05): 84
Percent occurrence of ventricular fibrillation [3]: 40
relative time for cardiac arrest to occur [4]: 118
relative time for extrasystole to occur [4]: 133
relative time for ventricular fibrillation to occur ([4]; *P < 0.05): 129
